In ChEMBL document CHEMBL3132801, “Meridianin G and its analogs as antimalarial agents” (Medchemcomm, 2013):
In brackets after ≈: the same amount, converted by molar mass. Activity calls are given as the source filed them. The rule behind the calls is not given here.

Tests used:
[1] = test system: Plasmodium falciparum; assay: Antimicrobial activity against Plasmodium falciparum W2 after 72 hrs by LDH activity assay; format: functional, organism-based
[2] = test system: Plasmodium falciparum; assay: Antimicrobial activity against Plasmodium falciparum D6 after 72 hrs by LDH activity assay; format: functional, organism-based
[3] = test system: Leishmania donovani; assay: Antileishmanial activity against Leishmania donovani promastigotes after 48 hrs by Alamar Blue assay; format: functional, organism-based
[4] = Selectivity index, ratio of IC50 for pig LLC-PK1 cells to IC50 for Plasmodium falciparum W2; format: toxicity, cell-based; conditions: read-out: Ratio IC50
[5] = Selectivity index, ratio of IC50 for african green monkey Vero cells to IC50 for Plasmodium falciparum W2; format: toxicity, cell-based; conditions: read-out: Ratio IC50
[6] = Selectivity index, ratio of IC50 for human HepG2 cells to IC50 for Plasmodium falciparum W2; format: toxicity, cell-based; conditions: read-out: Ratio IC50
[7] = Selectivity index, ratio of IC50 for pig LLC-PK1 cells to IC50 for Plasmodium falciparum D6; format: toxicity, cell-based; conditions: read-out: Ratio IC50
[8] = Selectivity index, ratio of IC50 for african green monkey Vero cells to IC50 for Plasmodium falciparum D6; format: toxicity, cell-based; conditions: read-out: Ratio IC50
[9] = Selectivity index, ratio of IC50 for human HepG2 cells to IC50 for Plasmodium falciparum D6; format: toxicity, cell-based; conditions: read-out: Ratio IC50
[10] = test system: LLC-PK1; assay: Cytotoxicity against a pig LLC-PK1 cells after 48 hrs by Neutral Red assay; format: cell-based; conditions: Sus scrofa, LLC-PK1, 48 h
[11] = test system: Vero; assay: Cytotoxicity against african green monkey Vero cells after 48 hrs by Neutral Red assay; format: cell-based; conditions: Chlorocebus sabaeus
[12] = test system: HepG2; assay: Cytotoxicity against human HepG2 cells after 48 hrs by Neutral Red assay; format: cell-based; conditions: HepG2, 48 h
[13] = test system: Cryptococcus neoformans; assay: Antimicrobial activity against Cryptococcus neoformans by NCCLS method; format: functional, organism-based
[14] = test system: Aspergillus fumigatus; assay: Antimicrobial activity against Aspergillus fumigatus by NCCLS method; format: functional, organism-based
[15] = test system: Candida albicans; assay: Antimicrobial activity against Candida albicans by NCCLS method; format: functional, organism-based
[16] = test system: Staphylococcus aureus; assay: Antimicrobial activity against methicillin-resistant Staphylococcus aureus by NCCLS method; format: functional, organism-based
[17] = test system: Staphylococcus aureus; assay: Antimicrobial activity against Staphylococcus aureus by NCCLS method; format: functional, organism-based
[18] = Plasmodium falciparum, W2, 72 h, read-out: IC50
[19] = Plasmodium falciparum, D6, 72 h, read-out: IC50
[20] = Leishmania donovani, 48 h, read-out: IC50
[21] = Staphylococcus aureus, read-out: IC50

| Structure (SMILES) | IC50 [1, 18] | IC50 [2, 19] | IC90 [3] | selectivity ratio [4] | selectivity ratio [5] | selectivity ratio [6] | selectivity ratio [7] | selectivity ratio [8] | selectivity ratio [9] | IC50 [10] | IC50 [11] | IC50 [12] | IC50 [3, 20] | IC50 [1] | MBC [13] | MIC [13] | further results |
| --- | --- | --- | --- | --- | --- | --- | --- | --- | --- | --- | --- | --- | --- | --- | --- | --- | --- |
| C[C@@H]1CC[C@H]2[C@@H](C)C(=O)O[C@@H]3O[C@@]4(C)CC[C@@H]1[C@]32OO4 [ARTEMISININ] | < 0.09 µM | < 0.09 µM |  |  |  |  |  |  |  |  |  |  |  |  |  |  |  |
| Nc1nccc(-c2cn(C(=O)N3CCOCC3)c3ccccc23)n1 | 3.08 µM | 4.01 µM | inactive | > 25.1 | > 25.1 | > 25.1 | > 19.3 | > 19.3 | > 19.3 | > 77 µM | > 77 µM | > 77 µM |  |  |  |  | IC50 [3]: Not Active |
| CN1CCN(C(=O)n2cc(-c3ccnc(N)n3)c3cc(Br)ccc32)CC1 |  |  |  |  |  |  |  |  |  | > 60 µM | > 60 µM | > 60 µM | 40.5 µM | Not Active |  |  | IC90 ([3]; Leishmania donovani, 48 h): 108 µM; IC50 [2]: Not Active |
| C[C@@H]1[C@H](O)[C@@H](C)/C=C/C=C/C=C/C=C/C=C/C=C/C=C/[C@H](O[C@@H]2O[C@H](C)[C@@H](O)[C@H](N)[C@@H]2O)C[C@@H]2O[C@](O)(C[C@@H](O)C[C@@H](O)[C@H](O)CC[C@@H](O)C[C@@H](O)CC(=O)O[C@H]1C)C[C@H](O)[C@H]2C(=O)O [AMPHOTERICIN B] |  |  |  |  |  |  |  |  |  |  |  |  |  |  | 1.35 µM (≈ 1.25 µg/mL) | 1.35 µM (≈ 1.25 µg/mL) | IC90 ([3]; Leishmania donovani, 48 h): 0.35 µM |
| Cc1noc(C)c1Cn1cc(-c2ccnc(N)n2)c2ccccc21 |  | 12.4 µM | inactive |  |  |  | > 6.3 | > 6.3 | > 6.3 | > 78 µM | > 78 µM | > 78 µM |  | Not Active |  |  | IC50 [3]: Not Active |
| COCCn1cc(-c2ccnc(N)n2)c2cc(Br)ccc21 |  |  |  |  |  |  |  |  |  | 43 µM | > 72 µM | > 72 µM | 23.6 µM | Not Active | 57.6 µM (≈ 20 µg/mL) | 57.6 µM (≈ 20 µg/mL) | Activity [14]: inactive; Activity [15]: inactive; IC50 [13]: 27.4 µM; IC50 [16]: Not Active; MBC [16]: inactive; MIC [16]: inactive; IC50 [17]: Not Active; MBC [17]: inactive; MIC [17]: inactive; IC90 ([3]; Leishmania donovani, 48 h): 52.2 µM; IC50 [2]: Not Active |
| Nc1nccc(-c2cn(C(=O)N3CCOCC3)c3ccc(Br)cc23)n1 |  |  |  |  |  |  |  |  |  |  |  |  |  |  |  |  | Activity [3]: inactive; Activity [1]: inactive; Activity [2]: inactive |
| Cc1noc(C)c1Cn1cc(-c2ccnc(N)n2)c2cc(Br)ccc21 | 14.6 µM | 9.62 µM | inactive | > 4.3 | > 4.3 | > 4.3 | > 6.5 | > 6.5 | > 6.5 | > 63 µM | > 63 µM | > 63 µM | 107 µM |  |  |  |  |
| COc1cccc(C(=O)n2cc(-c3ccnc(N)n3)c3ccccc32)c1 |  |  |  |  |  |  |  |  |  |  |  |  |  |  |  |  | Activity [3]: inactive; Activity [1]: inactive; Activity [2]: inactive |
| O=c1[nH]c(-c2c[nH]c3ccc(I)cc23)nc2ccccc12 |  |  |  |  |  |  |  |  |  | > 65 µM | > 65 µM | > 65 µM | 9.17 µM | Not Active |  |  | IC90 ([3]; Leishmania donovani, 48 h): 14.2 µM; IC50 [2]: Not Active |
| COc1cccc2c1C(=O)c1c(O)c3c(c(O)c1C2=O)C[C@@](O)(C(=O)CO)C[C@@H]3O[C@H]1C[C@H](N)[C@H](O)[C@H](C)O1 [DOXORUBICIN] |  |  |  |  |  |  |  |  |  | < 1 µM | 7 µM | 2 µM |  |  |  |  |  |
| Nc1nccc(-c2cn(CN3C(=O)c4ccccc4C3=O)c3ccc(Br)cc23)n1 |  |  |  |  |  |  |  |  |  |  |  |  |  |  | inactive | inactive | Activity [14]: inactive; Activity [15]: inactive; IC50 [13]: 26.9 µM; IC50 [16]: Not Active; MBC [16]: inactive; MIC [16]: inactive; IC50 [17]: Not Active; MBC [17]: inactive; MIC [17]: inactive; Activity [3]: inactive; Activity [1]: inactive; Activity [2]: inactive |
| Nc1nccc(-c2cn(Cc3ccc(Cl)s3)c3ccc(Br)cc23)n1 | 10.1 µM | 13.6 µM |  | > 5.9 | > 5.9 | > 5.9 | > 4.4 | > 4.4 | > 4.4 | > 60 µM | > 60 µM | > 60 µM | 29.1 µM |  | 47.7 µM (≈ 20 µg/mL) | 47.7 µM (≈ 20 µg/mL) | Activity [14]: inactive; Activity [15]: inactive; IC50 [13]: 19.9 µM; IC50 [16]: Not Active; MBC [16]: inactive; MIC [16]: inactive; MBC [17]: inactive; MIC [17]: inactive; IC50 [17, 21]: 40.5 µM; IC90 ([3]; Leishmania donovani, 48 h): 41.2 µM |
| Nc1nccc(-c2cn(Cc3c4ccccc4cc4ccccc34)c3ccc(Br)cc23)n1 | 11.6 µM | 11.1 µM | inactive | > 4.5 | > 4.5 | > 4.5 | > 4.7 | > 4.7 | > 4.7 | > 52 µM | > 52 µM | > 52 µM |  |  |  |  | IC50 [3]: Not Active |
| CN1CCN(C(=O)n2cc(-c3ccnc(N)n3)c3ccccc32)CC1 | 14.5 µM | 9.63 µM | inactive | > 5.1 | > 5.1 | > 5.1 | > 7.7 | > 7.7 | > 7.7 | > 74 µM | > 74 µM | > 74 µM |  |  |  |  | IC50 [3]: Not Active |
| Nc1nccc(-c2cn(Cc3c4ccccc4cc4ccccc34)c3ccccc23)n1 | 11 µM | 7.06 µM |  | > 5.7 | > 5.7 | > 5.7 | > 8.9 | > 8.9 | > 8.9 | > 63 µM | > 63 µM | > 63 µM | 80 µM |  |  |  |  |
| Nc1nccc(-c2c[nH]c3ccccc23)n1 | 4.44 µM | 9.69 µM | inactive | > 24.1 | > 26.8 | > 26.8 | > 11.1 | > 12.3 | > 12.3 | 107 µM | 119 µM | > 119 µM |  |  |  |  | IC50 [3]: Not Active |
| Nc1nccc(-c2cn(C(=O)c3ccccc3)c3ccccc23)n1 | 4.58 µM | 11.4 µM | inactive | > 17.4 | > 17.4 | > 17.4 | > 7 | > 7 | > 7 | > 80 µM | > 80 µM | > 80 µM |  |  |  |  | IC50 [3]: Not Active |
| N=C(N)c1ccc(OCCCCCOc2ccc(C(=N)N)cc2)cc1 [PENTAMIDINE] |  |  |  |  |  |  |  |  |  |  |  |  |  |  |  |  | IC90 ([3]; Leishmania donovani, 48 h): 6.21 µM |
| O=C1NC(c2c[nH]c3ccccc23)Nc2ccccc21 (stereo not given) |  |  |  |  |  |  |  |  |  |  |  |  |  |  |  |  | Activity [3]: inactive; Activity [1]: inactive; Activity [2]: inactive |
| Nc1nccc(-c2cn(Cc3ccc(Cl)s3)c3ccccc23)n1 |  |  | inactive |  |  |  |  |  |  | > 74 µM | > 74 µM | > 74 µM | 41.3 µM | Not Active | 14.7 µM (≈ 5.01 µg/mL) | 14.7 µM (≈ 5.01 µg/mL) | Activity [14]: inactive; Activity [15]: inactive; IC50 [13]: 13 µM; IC50 [16]: Not Active; MBC [16]: inactive; MIC [16]: inactive; IC50 [17]: Not Active; MBC [17]: inactive; MIC [17]: inactive; IC50 [2]: Not Active |
| O=C1NC(c2c[nH]c3ccc(Br)cc23)Nc2ccccc21 (stereo not given) |  |  |  |  |  |  |  |  |  | 53 µM | > 73 µM | 73 µM | 79.9 µM | Not Active | inactive | inactive | Activity [14]: inactive; Activity [15]: inactive; IC50 [13]: 14.8 µM; MBC [16]: inactive; MIC [16]: inactive; IC50 [16, 21]: 20.9 µM; MBC [17]: inactive; MIC [17]: inactive; IC50 [17, 21]: 25.2 µM; IC50 [2]: Not Active |
| CCOc1ccccc1C(=O)n1cc(-c2ccnc(N)n2)c2ccccc21 |  |  |  |  |  |  |  |  |  | > 70 µM | > 70 µM | > 70 µM | 47.4 µM | Not Active | inactive | inactive | Activity [14]: inactive; Activity [15]: inactive; IC50 [13]: 45.6 µM; IC50 [16]: Not Active; MBC [16]: inactive; MIC [16]: inactive; IC50 [17]: Not Active; MBC [17]: inactive; MIC [17]: inactive; IC50 [2]: Not Active |
